Active and inactive are the calls of the source. The rule behind the calls is not given here.
Assays:
[1] = molecular target: Histamine H3 receptor (Cavia porcellus) (UniProt Q9JI35); assay: Antagonist activity at guinea pig histamine H3 receptor assessed as blockade of (R)-alpha-methyl histamine-induced inhibition of EFS-stimulated guinea pig ileum contraction at 1 ug/mL; format: functional, tissue-based
Histamine H3 receptor = Histamine H3 receptor (Cavia porcellus, UniProt Q9JI35); assay: Binding affinity to histamine H3 receptor in guinea pig brain membrane; format: cell membranes
Sequence of Histamine H3 receptor (Q9JI35 whole entry): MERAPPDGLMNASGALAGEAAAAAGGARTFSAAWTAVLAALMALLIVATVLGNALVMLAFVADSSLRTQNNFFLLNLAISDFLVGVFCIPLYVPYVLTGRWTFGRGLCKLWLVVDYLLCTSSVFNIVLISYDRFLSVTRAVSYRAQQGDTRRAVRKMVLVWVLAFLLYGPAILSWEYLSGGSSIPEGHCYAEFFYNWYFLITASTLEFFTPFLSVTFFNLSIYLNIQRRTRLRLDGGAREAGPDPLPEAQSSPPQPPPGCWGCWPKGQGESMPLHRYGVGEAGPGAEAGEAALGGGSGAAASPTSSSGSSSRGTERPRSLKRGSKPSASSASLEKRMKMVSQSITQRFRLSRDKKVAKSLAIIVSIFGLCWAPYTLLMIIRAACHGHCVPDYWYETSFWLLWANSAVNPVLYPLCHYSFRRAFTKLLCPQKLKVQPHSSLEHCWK

[2] = molecular target: Histamine H3 receptor (Cavia porcellus) (UniProt Q9JI35); assay: Antagonist activity at guinea pig histamine H3 receptor assessed as blockade of clonidine-induced inhibition of EFS-stimulated guinea pig ileum contraction at 1 ug/mL; format: functional, tissue-based

Sequence of Histamine H3 receptor (Cavia porcellus) (Q9JI35 whole entry): as above

SMILES | Activity [1] | IC50 (Histamine H3 receptor) | Activity [2]
COC1=C(Br)C(O)C2(C=C1Br)CC(C(=O)NCCc1c[nH]cn1)=NO2 (centres undefined) | inactive |  | 
COc1ccc(C/C(=N\O)C(=O)NCCc2c[nH]cn2)cc1Br [VERONGAMINE] | Active | 500 nM | inactive

— ChEMBL document CHEMBL1149035, “Verongamine, a novel bromotyrosine-derived histamine H3-antagonist from the marine sponge Verongula gigantea” (J Nat Prod, 1994)
